The structures appear in SMILES notation.

A word on the IC50: it is the concentration at which inhibition is half-maximal. Usually inhibition stands for the relative decrease from the control value, in per cent.

Assay type in all cases: biochemical
One test concerns the target T1, EGFR (Homo sapiens, UniProt P00533).
T1 construct: The intracellular portion of EGFR started at nucleotide 2189 (corresponding to amino acid 667) and ended at the termination codon; made in house; host or cells: Sf9 insect cells (baculovirus)
The experiment in a line: EGFR Kinase Assay. The conditions noted are these: GST-EGFR, ATP 5 μM. In outline: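 Potency came from triplicate 16-point half-log titrations starting at 200 uM, with IC50 fitted from % inhibition against log concentration, or % inhibition at 2 μM otherwise. Reaction: Sf9-made GST–EGFR cytoplasmic region (aa 667 onward), biotin-polyGluTyr, 5 μM ATP with 33P tracer, pH 8.0 Tris/Mg/vanadate/DTT, 30 °C for 1 h; captured on streptavidin Flashplates and counted.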

In a further test the target is T2, c-Src kinase (human) (Homo sapiens, UniProt P12931).
T2 construct: purchased Upstate Biotechnology, Lake Placid, N.Y
T2 sequence (P12931 whole entry): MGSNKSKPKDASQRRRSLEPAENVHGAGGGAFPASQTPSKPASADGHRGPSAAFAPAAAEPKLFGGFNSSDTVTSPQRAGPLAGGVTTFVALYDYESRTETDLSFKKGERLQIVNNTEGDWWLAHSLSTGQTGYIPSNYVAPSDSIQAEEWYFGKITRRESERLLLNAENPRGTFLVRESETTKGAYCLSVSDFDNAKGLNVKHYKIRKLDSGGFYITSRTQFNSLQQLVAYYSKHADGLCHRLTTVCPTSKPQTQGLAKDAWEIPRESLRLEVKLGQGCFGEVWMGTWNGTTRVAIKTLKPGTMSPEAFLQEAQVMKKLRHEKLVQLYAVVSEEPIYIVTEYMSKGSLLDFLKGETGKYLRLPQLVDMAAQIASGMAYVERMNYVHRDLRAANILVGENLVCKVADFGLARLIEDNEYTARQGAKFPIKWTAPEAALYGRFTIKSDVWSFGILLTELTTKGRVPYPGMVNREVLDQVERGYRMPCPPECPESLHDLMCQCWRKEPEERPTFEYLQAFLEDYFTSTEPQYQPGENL
Kind of test: c-Src Kinase Assay. As to conditions: test concentration of 2 μM; multiple values are separate assay results. The procedure: A mixture of a 10× kinase buffer (80 mM MOPS at pH 7.0, 2 mM EDTA and 100 mM Magnesium Chloride), ATP (5 μM final from a 10 mM stock), a Cdc2 peptide KVEKIGEGTYGVVYK (100 μM final from a 2.5 mM stock), γ-^33P ATP (10 μCl/μL stock) and water (for a total of 20 μL/well) was added to each well of a Streptavidin Flashplate.
Test compound in 100% DMSO (0.5 μL) was added to the appropriate wells. Diluted c-Src kinase (human) (Accession Number SWISS-PROT P12931) (Upstate Biotechnology, Lake Placid, N.Y.) (diluted in a buffer consisting of 20 mM MOPS at pH 7.0, 1 mM EDTA, β-mercaptoethanol (0.1%), Brij-35 (0.01%), glycerol (5%), and 1 mg/mL bovine serum albumin) (2.5 μL) was added to the wells to initiate the reactions. The reaction plates were incubated at 30° C. for 40 min. The reaction was terminated by the addition of a 3% phosphoric acid solution (5 μL). The reaction product (10 μL) was spotted onto a P30 filtermat and washed for 5 minutes in phosphoric acid (75 mM). The wash sequence was repeated two more times, followed with one final wash in methanol. The plates were then dried, sealed and read on the TopCount scintillation counter after adding 30 μL scintillation fluid.
The c-Src inhibition values were derived using the percent inhibition formula provided in Example 164 and are shown as percent in Table 2 at a test concentration of 2 μM. For those compounds with an IC50, the IC50 value in μM is shown in parentheses. For compounds with multiple test values, each value represents a separate assay result.

Another test concerns the target T3, Lyn kinase (human) (Homo sapiens, UniProt P07948).
T3 construct: purchased Upstate Biotechnology, Lake Placid, N.Y
The experiment in a line: Lyn Kinase Assay. The conditions noted are these: test concentration of 2 μM. How it is done:
A mixture of a 10× kinase buffer (500 mM MOPS at pH 7.5, 1 mM EGTA, 1 mM Sodium Vanadate, 1% β-mercaptoethanol and 100 mM Magnesium Acetate), ATP (5 μM final from a 10 mM stock), polyGluTyr (0.1 mg/mL final from a 1 mg/mL stock), γ-^33P ATP (10 μCl/μL stock) and water (for a total of 20 μL/well) was added to each well of a Streptavidin Flashplate.
Test compound in 100% DMSO (0.5 μL) was added to the appropriate wells. Diluted Lyn kinase (human)(Accession Number EMBL M16038) (Upstate Biotechnology, Lake Placid, N.Y.) (diluted in a buffer consisting of 50 mM Tris at pH 7.5, 0.1 mM EGTA, Sodium Vanadate (0.1 mM), β-mercaptoethanol (0.1%) and 1 mg/mL bovine serum albumin) (2.5 μL) was added to the wells to initiate the reactions.
The reaction plates were incubated at 30° C. for 40 min. The reaction was terminated by the addition of a 3% phosphoric acid solution (5 μL). The reaction product (10 μL) was spotted onto a P30 filtermat and washed for 5 minutes in phosphoric acid (75 mM). The wash sequence was repeated two more times, followed with one final wash in methanol. The plates were then dried, sealed and read on the TopCount scintillation counter after adding 30 μL scintillation fluid.
The Lyn inhibition values were derived according to the procedure described in Example 164 and are shown as percent in Table 3 at a test concentration of 2 μM. For those compounds with an IC50, the IC50 value in μM is shown in parentheses. For compounds with multiple test values, each value represents a separate assay result.

For a further test, the target named is T4, HER-2 (Homo sapiens, UniProt P04626).
T4 construct: His6 with thrombin site (N); purchased Proqinase (Freiburg, Germany)
T4 sequence (P04626 679-1255): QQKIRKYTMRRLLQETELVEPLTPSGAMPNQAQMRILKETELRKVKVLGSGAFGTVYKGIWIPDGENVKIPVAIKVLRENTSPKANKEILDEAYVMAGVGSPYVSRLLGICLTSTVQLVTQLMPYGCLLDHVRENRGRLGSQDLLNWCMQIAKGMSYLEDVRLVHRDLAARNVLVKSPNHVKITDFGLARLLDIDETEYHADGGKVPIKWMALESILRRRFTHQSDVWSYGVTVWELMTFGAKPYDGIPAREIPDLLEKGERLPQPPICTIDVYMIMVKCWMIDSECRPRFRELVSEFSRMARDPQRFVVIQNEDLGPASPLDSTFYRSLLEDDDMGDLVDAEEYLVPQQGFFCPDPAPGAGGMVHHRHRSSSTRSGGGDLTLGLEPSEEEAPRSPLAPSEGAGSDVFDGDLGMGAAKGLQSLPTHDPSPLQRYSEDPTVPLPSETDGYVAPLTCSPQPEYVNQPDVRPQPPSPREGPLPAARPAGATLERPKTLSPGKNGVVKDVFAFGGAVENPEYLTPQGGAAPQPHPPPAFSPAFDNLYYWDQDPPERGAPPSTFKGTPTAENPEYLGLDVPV
Kind of test: HER-2 Kinase Assay. As to conditions: for inhibition at 1 µM: test concentration of 1 μM; for IC50: value in parentheses. Summed up:
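Read-out was scintillation counting of 33P incorporated into biotinylated polyGluTyr captured on streptavidin plates. Reactions ran 1 h at 30 °C with GST-fused HER-2 residues 679–1255, 1 μM ATP, Mn2+ and Mg2+ at pH 7.5; data given as percent inhibition at 1 μM, with IC50 where determined.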

T1 sequence (P00533 669-1210 limits assumed): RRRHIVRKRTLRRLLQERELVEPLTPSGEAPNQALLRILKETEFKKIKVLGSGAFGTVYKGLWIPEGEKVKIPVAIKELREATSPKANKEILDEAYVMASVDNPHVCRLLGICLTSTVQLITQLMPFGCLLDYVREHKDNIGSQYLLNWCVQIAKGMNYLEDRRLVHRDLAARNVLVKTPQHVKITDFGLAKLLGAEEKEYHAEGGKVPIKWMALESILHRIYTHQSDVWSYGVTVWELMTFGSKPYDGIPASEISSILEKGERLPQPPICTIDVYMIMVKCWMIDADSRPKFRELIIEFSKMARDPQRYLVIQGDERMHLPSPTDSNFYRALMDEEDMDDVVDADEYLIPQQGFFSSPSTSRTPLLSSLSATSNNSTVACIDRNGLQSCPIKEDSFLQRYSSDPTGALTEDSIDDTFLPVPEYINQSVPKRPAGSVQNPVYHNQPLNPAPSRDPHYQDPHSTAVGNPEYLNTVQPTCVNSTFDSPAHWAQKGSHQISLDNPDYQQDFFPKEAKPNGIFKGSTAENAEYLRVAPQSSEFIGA
T3 sequence (P07948 whole entry): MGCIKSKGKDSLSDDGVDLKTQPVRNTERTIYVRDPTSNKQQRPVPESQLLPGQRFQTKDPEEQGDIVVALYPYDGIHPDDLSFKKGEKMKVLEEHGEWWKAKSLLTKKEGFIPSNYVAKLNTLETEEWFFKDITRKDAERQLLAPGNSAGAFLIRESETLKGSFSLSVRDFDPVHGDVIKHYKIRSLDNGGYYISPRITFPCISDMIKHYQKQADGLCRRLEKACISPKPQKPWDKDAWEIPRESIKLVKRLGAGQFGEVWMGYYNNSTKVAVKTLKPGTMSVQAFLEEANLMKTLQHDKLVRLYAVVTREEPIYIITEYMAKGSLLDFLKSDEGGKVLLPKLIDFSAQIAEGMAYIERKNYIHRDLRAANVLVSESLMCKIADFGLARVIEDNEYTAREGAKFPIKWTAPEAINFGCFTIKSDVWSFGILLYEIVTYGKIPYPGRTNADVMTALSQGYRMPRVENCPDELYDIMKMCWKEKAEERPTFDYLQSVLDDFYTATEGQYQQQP

`COc1ccc(-c2sc3ncnc4c3c2NC(=O)N4c2ccc(F)c(Cl)c2)cc1OC` [Cpd 9, 5-(3-chloro-4-fluoro-phenyl)-2-(3,4-dimethoxy-phenyl)-3H,5H-1-thia-3,5,6,8-tetraaza-acenaphthylen-4-one]: the IC50 against EGFR came out at 1030 nM. Besides, the inhibition at 2 µM is 26% against c-Src kinase (human) and -7% at Lyn kinase (human).

`O=C(Nc1ccc(CN2CCOCC2)cc1)c1sc2ncnc3c2c1NC(=O)N3c1ccc(F)cc1Cl` [Cpd 16, 5-(2-chloro-4-fluoro-phenyl)-4-oxo-4,5-dihydro-3H-1-thia-3,5,6,8-tetraaza-acenaphthylene-2-carboxylic acid (4-morpholin-4-ylmethyl-phenyl)-amide]: the half-maximal inhibitory concentration (IC50) against EGFR was 223 nM; at HER-2, 5440 nM. Moreover, the figures for the inhibition at 2 µM against c-Src kinase (human) and on Lyn kinase (human) were 52% and 68%, respectively. Further, on HER-2, the inhibition at 1 µM came to 54%.

Consider `COc1cc(NC(=O)c2sc3ncnc4c3c2NC(=O)N4c2cc(OC)c(OC)c(OC)c2Cl)ccc1OCC1CCCCO1` (centres unmarked) [Cpd 30, 5-(2-chloro-3,4,5-trimethoxy-phenyl)-4-oxo-4,5-dihydro-3H-1-thia-3,5,6,8-tetraaza-acenaphthylene-2-carboxylic acid [3-methoxy-4-(tetrahydro-pyran-2-ylmethoxy)-phenyl]-amide], for which, at EGFR, the IC50 is 19200 nM. For the same compound, the inhibition at 2 µM is 1% on c-Src kinase (human) and -6% at Lyn kinase (human). At HER-2, the inhibition at 1 µM is 19%.

Regarding `COc1cc(NC(=O)c2sc3ncnc4c3c2NC(=O)N4c2cc(OC)c(OC)c(OC)c2)ccc1OCC1CCCCO1` (centres unmarked) [Cpd 31, 5-(3,4,5-trimethoxy-phenyl)-4-oxo-4,5-dihydro-3H-1-thia-3,5,6,8-tetraaza-acenaphthylene-2-carboxylic acid [3-methoxy-4-(tetrahydro-pyran-2-ylmethoxy)-phenyl]-amide], the concentration for half-maximal inhibition (IC50) on EGFR is 42700 nM. Besides, the inhibition at 2 µM at c-Src kinase (human) was 8%; on Lyn kinase (human), -7%. For the same compound, the inhibition at 1 µM against HER-2 was 1%.

On to `CN1CCCC(COc2ccc(NC(=O)c3sc4ncnc5c4c3NC(=O)N5c3ccc(Cl)cc3Cl)cc2)C1` (centres unmarked) [Cpd 32, 5-(2,4-dichloro-phenyl)-4-oxo-4,5-dihydro-3H-1-thia-3,5,6,8-tetraaza-acenaphthylene-2-carboxylic acid [4-(1-methyl-piperidin-3-ylmethoxy)-phenyl]-amide], for which the midpoint of inhibition at EGFR, the IC50, lay at 580 nM. Moreover, the figures for the inhibition at 2 µM on c-Src kinase (human) and on Lyn kinase (human) were 32% and 38%, respectively. Moreover, the inhibition at 1 µM against HER-2 amounted to 33%.

As to `COc1cc(N2C(=O)Nc3c(C(=O)Nc4ccc(CN5CCCCC5)cc4)sc4ncnc2c34)c(Cl)cc1Cl` [Cpd 33, 5-(2,4-dichloro-5-methoxy-phenyl)-4-oxo-4,5-dihydro-3H-1-thia-3,5,6,8-tetraaza-acenaphthylene-2-carboxylic acid (4-piperidin-1-ylmethyl-phenyl)-amide], on EGFR, the IC50 came out at 1890 nM. Also, the figures for the inhibition at 2 µM at c-Src kinase (human) and against Lyn kinase (human) were 32% and 36%, respectively. In addition, the inhibition at 1 µM on HER-2 worked out at 14%.

Turning to `O=C(Nc1ccc(CCN2CCCCC2)cc1)c1sc2ncnc3c2c1NC(=O)N3c1ccc(Oc2ccccc2)c(F)c1` [Cpd 114, 5-(3-fluoro-4-phenoxy-phenyl)-4-oxo-4,5-dihydro-3H-1-thia-3,5,6,8-tetraaza-acenaphthylene-2-carboxylic acid [4-(2-piperidin-1-yl-ethyl)-phenyl]-amide], the IC50 on EGFR amounted to 25 nM. Further, at Lyn kinase (human), the inhibition at 2 µM was found to be 40%. The “% Inhibition (Lyn)” value on Lyn kinase (human) (2 µM) is recorded as 48.5%. At HER-2, the inhibition at 1 µM was 60% and the IC50 was found to be 536 nM.

Take `CC(C)(C)OC(=O)NCCCNC(=O)c1sc2ncnc3c2c1NC(=O)N3c1ccc2c(ccn2Cc2cccc(F)c2)c1` [Cpd 141, [3-({5-[1-(3-fluoro-benzyl)-1H-indol-5-yl]-4-oxo-4,5-dihydro-3H-1-thia-3,5,6,8-tetraaza-acenaphthylene-2-carbonyl}-amino)-propyl]-carbamic acid tert-butyl ester]: the inhibition at 2 µM was determined as 26% against c-Src kinase (human) and 37% against Lyn kinase (human). Besides, the half-maximal inhibitory concentration (IC50) on HER-2 is approximately 100000 nM.

The record behind these values is patent US7579356B2, “Thia-tetraazaacenaphthylene kinase inhibitors” (Janssen Pharmaceutica NV, priority 2005, dated 2009).
